Data taken from ChEMBL document CHEMBL5442168, “ASAP - In vitro liver microsomal stability” (2024).
“And” between values parts separate entries of the source, which are not always exact repeats. Equal entries are not always repeated.

Legend:
[1] = (§1) Human liver microsomal stability of compound in microsomal protein, PBS buffer pH 7.4, NADPH, glucose-6-phosphate and glucose-6-phosphate dehydrogenase media. Aliquotes were taken at 5 time points and after stopping the reaction, supernatants were analyzed using HPLC coupled with a tandem mass spectrometer. The elimination constant, half-life, and intrinsic clearance are determined as results using linear regression analysis. The assay has been performed by Enamine biological services, Bienta Ltd.The protocol is publicly available: dx.doi.org/10.17504/protocols.io.5qpvokdb9l4o/v1; format: ADME, microsomes, Microsome; conditions: for half-life / microsomal CLint: liver microsomes; for Remaining / Remaining (without cofactor) / CLint / T1/2: microsomes
[2] = as §1, with “Mouse” for “Human”; format: ADME, microsomes, Microsome; conditions: for half-life / microsomal CLint: liver microsomes; for Remaining / Remaining (without cofactor) / CLint / T1/2: microsomes
Throughout, for Remaining (without cofactor): time not given here.
Throughout, for Remaining: time not given here.

SMILES	half-life [1] [min]	microsomal CLint [1] [µL/min/mg]	Remaining [1]	Remaining (without cofactor) [1]	half-life [2] [min]	microsomal CLint [2] [µL/min/mg]	Remaining [2]	Remaining (without cofactor) [2]	CLint [1]	T1/2 [1]	CLint [2] [µL/min/mg]	T1/2 [2] [min]
CNC(=O)Cn1cc(-c2cc3c(N[C@H](c4ccc5c(c4)S(=O)(=O)CCC5)C(C)C)ncnc3[nH]2)cn1	18.1	92	23%	101%	15	111	16%	96%	–	–	–	–
CC(C)(C)[C@H](Nc1ncnc2[nH]c(-c3cnn(CC(N)=O)c3)cc12)c1ccc2c(c1)OCCO2	10.9	153	9%	100%	38.3	44	48%	105%	–	–	–	–
CC(C)[C@@H](Nc1ncnc2[nH]c(C(=O)N[C@H]3CCN(C)C3)cc12)c1ccc2c(c1)S(=O)(=O)CCC2	64	26	66%	107%	434	4	92%	92%	–	–	–	–
CNC(=O)Cn1cc(-c2cc3c(N[C@@H](c4ccc5c(c4)S(=O)(=O)CCC5)C(C)C)ncnc3[nH]2)cn1	–	–	–	96% and 89%	21.6	77	26% and 48%	103% and 90%	94 µL/min/mg and 237 µL/min/mg	17.7 min and 7 min	44	37.8
COc1ccc([C@H](Cc2nnn[nH]2)NC(=O)c2ncnc3[nH]ccc23)cc1	1090	2	105.597%	84.68%	206	7	115.387%	100.411%	–	–	–	–
CC(C)[C@@H](Nc1ncnc2[nH]c(-c3cnn(C)c3C#N)cc12)c1ccc2c(c1)S(=O)(=O)CCC2	3.4	490	1% and 0%	94% and 101%	3.8	440	0%	96% and 106%	516 µL/min/mg	3.2 min	709	2.4
COCCNC(=O)c1c[nH]c2ncnc(N[C@@H](c3ccc4c(c3)S(=O)(=O)CCC4)C(C)C)c12	3.1	540	0%	106%	1.9	888	0%	99%	–	–	–	–
CC(C)[C@@H](Nc1ncnc2[nH]ccc12)c1ccc2c(c1)NC(=O)CO2	79	21	73% and 56%	105% and 92%	21.4	78	27% and 26%	93% and 110%	31 µL/min/mg	54.3 min	80	20.9
CC(C)[C@@H](Nc1ncnc2[nH]c(C(=O)N[C@@H]3CCN(C)C3)cc12)c1ccc2c(c1)S(=O)(=O)CCC2	83.8	20	70%	106%	151	11	80%	92%	–	–	–	–
CC(C)[C@@H](Nc1ncnc(N)c1Cl)c1ccc2c(c1)S(=O)(=O)CCC2	21	79	27%	101%	8.2	204	4%	102%	–	–	–	–
CCNC(=O)c1cc2c(N[C@@H](c3ccc4c(c3)S(=O)(=O)NCC4)C(C)C)ncnc2[nH]1	19.7	85	24%	107%	36.8	45	49%	101%	–	–	–	–
CC(C)[C@H](Nc1ncnc2[nH]c(-c3cnn(CC(N)=O)c3)cc12)c1ccc2c(c1)OCCO2	35.4	47	43%	102%	104	16	80%	104%	–	–	–	–
Cc1nn(C)cc1-c1cc2c(N[C@@H](c3ccc4c(c3)S(=O)(=O)CCC4)C(C)C)ncnc2[nH]1	6.6	251	2%	116%	4.3	390	1%	103%	–	–	–	–
CC(C)(C)[C@@H](Nc1ncnc2[nH]c(-c3cnn(CC(N)=O)c3)cc12)c1ccc2c(n1)OCCO2	46	36	55% and 49%	96% and 107%	53.1	31	60% and 59%	90% and 109%	42 µL/min/mg	39.8 min	30	56.2
CC(C)[C@@H](Nc1ncnc2[nH]c(-c3cnn(CC(N)=O)c3)cc12)c1ccc2c(c1)S(=O)(=O)CCC2	14.4	116	15%	95% and 103%	27.4	61	37% and 20%	109% and 111%	115 µL/min/mg	14.5 min	96	17.4
CC(C)[C@@H](Nc1ncnc2[nH]cc(C(=O)NC3CC3)c12)c1ccc2c(c1)S(=O)(=O)CCC2	–	–	–	90% and 111%	–	–	2% and 0%	101% and 102%	–	–	–	–
CC(C)[C@@H](Nc1ncnc2[nH]c(-c3cnn(C)c3)cc12)c1ccc2c(c1)S(=O)(=O)NCC2	13.9	120	13%	98%	19.1	87	23%	92%	–	–	–	–
Cc1nn(C)cc1-c1cc2c(N[C@H](c3ccc4c(c3)S(=O)(=O)CCC4)C(C)C)ncnc2[nH]1	6.1	273	1%	113%	8.3	202	4%	104%	–	–	–	–
CC(C)[C@H](Nc1ncnc2[nH]c(-c3cnn(C)c3C#N)cc12)c1ccc2c(c1)OCCO2	2.4	706	1%	103%	6.5	257	2%	113%	–	–	–	–
CC(C)[C@H](Nc1ncnc2[nH]c(-c3cnn(C)c3)cc12)c1ccc2c(c1)S(=O)(=O)CCC2	9.9	169	7%	95%	6.5	255	1%	98%	–	–	–	–
CC(C)[C@@H](Nc1ncnc2[nH]c(-c3cnn(C)c3C#N)cc12)c1ccc2c(c1)NC(=O)CO2	16.6	100	18% and 44%	93% and 109%	9.4	177	6% and 10%	97% and 102%	52 µL/min/mg	32.3 min	147	11.3
CC(C)[C@H](Nc1ncnc2[nH]c(-c3cnn(CC(N)=O)c3)cc12)c1ccc2c(n1)OCCO2	134	12	85%	90%	359	5	99%	110%	–	–	–	–
CC(C)[C@@H](Nc1ncnc2[nH]ccc12)c1ccc2c(c1)S(=O)(=O)CCO2	91.3	18	74%	92%	24.2	69	33%	111%	–	–	–	–
CC(C)[C@H](Nc1ncnc2[nH]c(C(=O)N[C@@H]3CCN(C)C3)cc12)c1ccc2c(c1)S(=O)(=O)CCC2	627	3	98%	100%	649	3	104%	107%	–	–	–	–
